# PMC8957246, “Synthesis and diverse biological activity profile of triethylammonium isatin-3-hydrazones” (ADMET & DMPK, 2022)
# Read-outs that look alike come from different tables or passages of the source. Marks after values point to notes of the source that are not given here.
# Experiments:
# [1] = test system: activated partial thromboplastin time (intrinsic coagulation pathway); test: Anticoagulant activity, clotting test APTT; set-up: species or system human; settings: concentration 5×10^–4 g/mL; median (25-75 percentiles)
# [2] = test system: Xanthomonas campestris B-610; test: Bactericidal activity, agar diffusion, X. campestris; type: cell-based; settings: Xanthomonas campestris, B610, 2 mM/L
# Source text: (§1) Plant pathogenic bacterial strains Micrococcus luteus B-109, Pectobacterium atrosepticum 1043, Pectobacterium carotovorum subsp. carotovorum MI, Pseudomonas fluorescens EL-2.1, and Xanthomonas campestris B-610 and fungal strain Fusarium oxysporum IBPPM 543 were obtained from the specialized scientific culture collection of IBPPM RAS (WFCC no. 975, WDCM no. 1021) (CM IBPPM). Pathogenic fungus Phytophthora cactorum VKM F-985 provided by the All-Russian Collection of Microorganisms (VKM) and deposited at A.E. Favorsky Irkutsk Institute of Chemistry, SB RAS, was also used as test organism. Bacteria M. luteus, P. carotovorum subsp. carotovorum, P. atrosepticum, and Ps. fluorescens were grown in meat-peptone medium (BP), and X. campestris was grown in the medium with glucose, yeast extract, and calcium carbonate (GYCa). Solid media contained Bacto agar (18 g/L); pH was adjusted to 7.2-7.4. All bacterial cultures were grown at 28°C. The mycelial cultures of F. oxysporum and P. cactorum were grown on a glucose-peptone-yeast (GPY) nutrient medium at 27 °C. For inoculum preparation, both fungal strains were initially grown on the agar GPY in Petri dishes and then transferred into the seed medium by punching out 5 mm of the agar plate culture with a self-designed cutter.
# Antibacterial and antifungal activities of the compounds were explored using the agar diffusion method and the technique of a phytopathogen radial growth inhibition. Method of diffusion in agar (measuring the diameter of growth inhibition zones) was used for determining the bactericidal activity. The 6-mm wells were made in ager medium (GYCa for Xanthomonas campestris or BP for other bacteria). Bacterial suspensions were distributed over the agar surface, and the tested compound's solution (150 μl) was added to each well. The width of growth inhibition zones around the wells was determined after incubation for 36-40 h.
# (§2) The solutions of tested compounds were prepared with a concentration of 2 mmol/l (stock solution). For comparison, test compounds were also commonly applied disinfecting agents and antibiotics.
# [3] = test system: Phytophthora cactorum VKM F-985; test: Fungicidal activity, radial growth inhibition, P. cactorum; type: cell-based; settings: for EC50: Phytophthora cactorum, 168 h, day 7, EC50 = 50C/I, read-out: EC50, μg/mL at day 7
# Source text: as §1
# For the fungicidal activity analysis, radial growth (colony diameters) of the fungi on a solid medium in the absence and in the presence of the compounds 3a,c-g solutions at various concentrations were compared. The method consisted of the following: sterile, melted and then cooled to about 60°C GPY agar medium (20.0 ml) was mixed with the precisely measured volumes of the solutions under question, and poured into a sterile Petri dish (90 mm i.d.). After solidification of GPY agar, the media were inoculated by the fungus using 10-day-old cultures of F. oxysporum or P. cactorum. The inoculation was done by transferring a 5-mm (i.d.) GPY-agar block covered with mycelium to the center of the Petri dish followed by incubation in a thermostat at 27°C. The fungicidal effect was scored by the size of mycelium colony on a Petri dish compared to the control without fungicidal admixtures to GPY agar. Each treatment was performed in at least four replicates in two independent experiments. The observation period ended when the control Petri dish was filled with mycelium (usually after 12 days). The inhibition of the phytopathogen colony growth by the compounds 3a,c-g or fludioxonil solutions was calculated as a percentage by which the mycelium radial propagation was decreased compared to the unaffected control, the latter was taken as 100 % of growth (or zero percent of inhibition). The EC50 value was calculated as the compound concentration at which the radial growth of the fungus colony was decreased by 50 % relative to the non-fungicidal control, according to the formula EC50 = 50C/I based on the approach developed e.g., in [34, 35].
# as §2
# [4] = 150 μl per well, 36-40 h, read-out: width of the inhibition zone
# [5] = read-out: Inhibition zone width (mm), not less
smiles,measurement,setting,value
"CC[N+](CC)(CC)CC(=O)N/N=C1\C(=O)N(Cc2cc(C(C)(C)C)c(O)c(C(C)(C)C)c2)c2c1ccc(C)c2C [Compound 3d, 2-(2-(1-(3,5-Di-tert-butyl-4-hydroxybenzyl)-6,7-dimethyl-2-oxoindolin-3-ylidene)hydrazinyl)-N,N,N-triethyl-2-oxoethanammonium bromide]","APTT, % of control",[1],+4.8 (3.7-6.9) ^‡ % of control
same,zone of inhibition at 2000 µM,[2]; [4],8 mm
same,zone of inhibition at 2000 µM,[2]; [5],≥ 8 mm
same,"Inhibition value, I (%)","[3]; C 1.26 μg/mL, age of the fungus 3 days",18%
same,"Inhibition value, I (%)","[3]; C 1.26 μg/mL, age of the fungus 5 days",17%
same,"Inhibition value, I (%)","[3]; C 1.26 μg/mL, age of the fungus 7 days",5%
same,"Inhibition value, I (%)","[3]; C 1.26 μg/mL, age of the fungus 9 days",0%
same,"Inhibition value, I (%)","[3]; C 1.26 μg/mL, age of the fungus 12 days",0%
same,"Inhibition value, I (%)","[3]; C 3.15 μg/mL, age of the fungus 3 days",23%
same,"Inhibition value, I (%)","[3]; C 3.15 μg/mL, age of the fungus 5 days",18%
same,"Inhibition value, I (%)","[3]; C 3.15 μg/mL, age of the fungus 7 days",14%
same,"Inhibition value, I (%)","[3]; C 3.15 μg/mL, age of the fungus 9 days",6%
same,"Inhibition value, I (%)","[3]; C 3.15 μg/mL, age of the fungus 12 days",5%
same,"Inhibition value, I (%)","[3]; C 6.30 μg/mL, age of the fungus 3 days",29%
same,"Inhibition value, I (%)","[3]; C 6.30 μg/mL, age of the fungus 5 days",19%
same,"Inhibition value, I (%)","[3]; C 6.30 μg/mL, age of the fungus 7 days",15%
same,"Inhibition value, I (%)","[3]; C 6.30 μg/mL, age of the fungus 9 days",8%
same,"Inhibition value, I (%)","[3]; C 6.30 μg/mL, age of the fungus 12 days",7%
same,"Inhibition value, I (%)","[3]; C 9.45 μg/mL, age of the fungus 3 days",31%
same,"Inhibition value, I (%)","[3]; C 9.45 μg/mL, age of the fungus 5 days",20%
same,"Inhibition value, I (%)","[3]; C 9.45 μg/mL, age of the fungus 7 days",17%
same,"Inhibition value, I (%)","[3]; C 9.45 μg/mL, age of the fungus 9 days",9%
same,"Inhibition value, I (%)","[3]; C 9.45 μg/mL, age of the fungus 12 days",8%
same,"Inhibition value, I (%)","[3]; C 12.60 μg/mL, age of the fungus 3 days",50%
same,"Inhibition value, I (%)","[3]; C 12.60 μg/mL, age of the fungus 5 days",50%
same,"Inhibition value, I (%)","[3]; C 12.60 μg/mL, age of the fungus 7 days",51%
same,"Inhibition value, I (%)","[3]; C 12.60 μg/mL, age of the fungus 9 days",48%
same,"Inhibition value, I (%)","[3]; C 12.60 μg/mL, age of the fungus 12 days",35%
same,EC50,[3],11.2 µg/mL
"CC[N+](CC)(CC)CC(=O)N/N=C1\C(=O)N(Cc2cc(C(C)(C)C)c(O)c(C(C)(C)C)c2)c2cccc(Br)c21 [Compound 3e, 2-(2-(1-(3,5-Di-tert-butyl-4-hydroxybenzyl)-4-bromo-2-oxoindolin-3-ylidene)hydrazinyl)-N,N,N-triethyl-2-oxoethanammonium bromide]","APTT, % of control",[1],+3.2 (2.8-5.4) ^‡ % of control
same,zone of inhibition at 2000 µM,[2]; [4],11 mm
same,zone of inhibition at 2000 µM,[2]; [5],≥ 11 mm
same,"Inhibition value, I (%)","[3]; C 1.36 μg/mL, age of the fungus 3 days",8%
same,"Inhibition value, I (%)","[3]; C 1.36 μg/mL, age of the fungus 5 days",14%
same,"Inhibition value, I (%)","[3]; C 1.36 μg/mL, age of the fungus 7 days",22%
same,"Inhibition value, I (%)","[3]; C 1.36 μg/mL, age of the fungus 9 days",10%
same,"Inhibition value, I (%)","[3]; C 1.36 μg/mL, age of the fungus 12 days",3%
same,"Inhibition value, I (%)","[3]; C 3.41 μg/mL, age of the fungus 3 days",13%
same,"Inhibition value, I (%)","[3]; C 3.41 μg/mL, age of the fungus 5 days",21%
same,"Inhibition value, I (%)","[3]; C 3.41 μg/mL, age of the fungus 7 days",34%
same,"Inhibition value, I (%)","[3]; C 3.41 μg/mL, age of the fungus 9 days",12%
same,"Inhibition value, I (%)","[3]; C 3.41 μg/mL, age of the fungus 12 days",5%
same,"Inhibition value, I (%)","[3]; C 6.81 μg/mL, age of the fungus 3 days",17%
same,"Inhibition value, I (%)","[3]; C 6.81 μg/mL, age of the fungus 5 days",33%
same,"Inhibition value, I (%)","[3]; C 6.81 μg/mL, age of the fungus 7 days",38%
same,"Inhibition value, I (%)","[3]; C 6.81 μg/mL, age of the fungus 9 days",16%
same,"Inhibition value, I (%)","[3]; C 6.81 μg/mL, age of the fungus 12 days",7%
same,"Inhibition value, I (%)","[3]; C 10.22 μg/mL, age of the fungus 3 days",39%
same,"Inhibition value, I (%)","[3]; C 10.22 μg/mL, age of the fungus 5 days",40%
same,"Inhibition value, I (%)","[3]; C 10.22 μg/mL, age of the fungus 7 days",53%
same,"Inhibition value, I (%)","[3]; C 10.22 μg/mL, age of the fungus 9 days",28%
same,"Inhibition value, I (%)","[3]; C 10.22 μg/mL, age of the fungus 12 days",18%
same,"Inhibition value, I (%)","[3]; C 13.62 μg/mL, age of the fungus 3 days",45%
same,"Inhibition value, I (%)","[3]; C 13.62 μg/mL, age of the fungus 5 days",62%
same,"Inhibition value, I (%)","[3]; C 13.62 μg/mL, age of the fungus 7 days",72%
same,"Inhibition value, I (%)","[3]; C 13.62 μg/mL, age of the fungus 9 days",70%
same,"Inhibition value, I (%)","[3]; C 13.62 μg/mL, age of the fungus 12 days",66%
same,EC50,[3],3.1 µg/mL
